Assay results taken from patent US5620416A, “Methods of using topical agents with systemically administered active agents” (priority 1995, dated 1997).

Experiment: Skin CDDP concentration after iontophoresis of a vasoactive agent with intravenous cisplatin infusion
Assay type: in vivo, female weanling Yorkshire pigs
Description: The ability of iontophoretically-delivered, vasoactive compounds to affect local cutaneous concentrations of a systemically delivered active agent was investigated in female weanling Yorkshire pigs. The effect of the timing of iontophoresis on tissue deposition of active agent was also investigated.
Study animals were assigned to receive iontophoresis either prior to, or after, attaining steady-state systemic concentrations of cisplatin (cisdiaminedichloroplatinum, CDDP). The iontophoresed agent was either a peripheral vasodilator (tolazoline), peripheral vasoconstrictor (norepinephrine), or saline.
Subjects were sedated with intramuscular ketamine/xylazine, and anesthesia was maintained with intravenous thiamylal. In each subject the inguinal area was divided into four quadrants, three of which received iontophoresis. One quadrant received iontophoresis of 0.4% tolazoline HCl (TOL); one received iontophoresis of 0.4% norepinephrine HCl (NOR); and one received iontophoresis of 50% saturated saline (SAL). The remaining quadrant served as a control (CON) and was not subjected to iontophoresis.
Iontophoretic current density was 0.2 mAmp/cm^2. Cisplatin (1.0 mg/ml) was infused via the saphenous vein at a rate of 0.03 mg/kg/min. […]

## NC[C@H](O)c1ccc(O)c(O)c1 [Norepinephrine, norepinephrine]
Iontophoresis after reaching steady-state CDDP, control, tolazoline, norepinephrine and saline electrodes
  skin CDDP concentrations among skin samples (in words): did not vary significantly
Iontophoresis prior to steady-state CDDP, tolazoline p=0.01, norepinephrine p<0.001
  skin CDDP concentration vs control skin (in words): significantly lower
